Reference: patent US12011506B2, “Combination and uses and treatments thereof” (priority 2017, dated 2024)

What was measured:
CYP3A4 = CYP3A4 (Homo sapiens, UniProt P08684); conditions: cited from earlier work
[1] = Food effect pharmacokinetics: high-fat or moderate-fat meal versus fasted (Tables 20, 21)
Description: Cmax, AUC0-t, AUC0-∞ and AUClast are standard pharmacokinetic parameters that can be estimated manually or by using modelling software well known in the art, such as the Pharsight WinNonlin package using a non-compartmental model. The general basis for calculation of these quantities is well-known (e.g. see Rowland & Tozer (2010) Clinical Pharmacokinetics and Pharmacodynamics: Concepts and Applications ISBN 978-0781750097, or Jambhekar & Breen (2012) Basic Pharmacokinetics ISBN 978-0853699804). Typically the parameters will be assessed as the average (e.g. geometric or arithmetic mean) from within a group of at least 12 (and normally between 24 and 36) healthy human adults. Parameters should be measured in accordance with standards and practices which would be acceptable to a pharmaceutical regulatory agency such as FDA, EMA, MHLW, or WHO. The values may be based on measurements taken at appropriate intervals following the time of tablet ingestion, such as every hour, or at increasingly sparse sampling intervals, such as 1, 3, 5, 7, 9, 11, 13, 15, 20, and 24 hours after ingestion.

[2] = Dolutegravir oral pharmacokinetics (absorption, steady state, population pharmacokinetic analyses); type: in vivo, human
[3] = Excretion after a single oral dose of [14C] dolutegravir; type: in vivo, human; conditions: single oral dose of [14C] dolutegravir
cytochrome P450 CYP3A = test: Rilpivirine in vitro oxidative metabolism; type: in vitro ADME; conditions: in vitro experiments
[4] = Rilpivirine oral pharmacokinetics; type: in vivo, human
[5] = Excretion after single dose oral administration of [14C] rilpivirine; type: in vivo, human; conditions: single dose oral [14C] rilpivirine
Description: In feces, unchanged rilpivirine accounted for on average 25% of the administered dose. […] The pharmacokinetic properties of rilpivirine have been evaluated in adult healthy subjects and in adult antiretroviral treatment-naïve HIV-1-infected subjects. Exposure to rilpivirine was generally lower in HIV-1 infected subjects than in healthy subjects.

[6] = high-fat meal compared with fasted conditions
[7] = moderate-fat meal compared with fasted conditions

Sequence of CYP3A4 (P08684 whole entry): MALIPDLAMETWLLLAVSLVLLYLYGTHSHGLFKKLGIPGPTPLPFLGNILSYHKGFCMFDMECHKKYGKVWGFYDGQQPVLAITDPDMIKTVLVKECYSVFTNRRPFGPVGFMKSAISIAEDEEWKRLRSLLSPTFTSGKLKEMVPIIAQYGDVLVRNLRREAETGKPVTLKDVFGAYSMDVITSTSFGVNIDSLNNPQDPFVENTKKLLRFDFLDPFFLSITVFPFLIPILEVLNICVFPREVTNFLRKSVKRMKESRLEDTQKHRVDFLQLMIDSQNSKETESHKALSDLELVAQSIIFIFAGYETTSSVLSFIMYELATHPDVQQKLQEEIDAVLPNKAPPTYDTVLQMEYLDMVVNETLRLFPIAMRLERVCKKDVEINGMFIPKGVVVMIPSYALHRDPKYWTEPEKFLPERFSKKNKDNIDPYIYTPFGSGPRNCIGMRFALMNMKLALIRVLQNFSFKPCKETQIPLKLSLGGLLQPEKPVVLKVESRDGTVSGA

## C[C@@H]1CCO[C@H]2Cn3cc(C(=O)NCc4ccc(F)cc4F)c(=O)c(O)c3C(=O)N12 [Dolutegravir, (4R,12aS)—N-[(2,4-difluorophenyl)methyl]-7-hydroxy-4-methyl-6,8-dioxo-3,4,12,12a-tetrahydro-2H-pyrido[5,6]pyrazino[2,6-b][1,3]oxazine-9-carboxamide]
CYP3A4
  Extent as substrate of CYP3A4: about 15%
[1]; human, in vivo
  Increase of AUC(0-∞): approximately 87%
[1]; moderate- and high-fat meals each, compared with fasted conditions
  Increase of Cmax: approximately 75%
[2]; human, plasma, oral, population pharmacokinetic analyses, read-out: Terminal half-life (converted)
  half-life: ~14 h
[2]; once-daily dosing
  Time to pharmacokinetic steady state: ≤ 5 days
[2]; population pharmacokinetic analyses
  Apparent clearance (CL/F): 1.0 L per hour
[3]
  Renal elimination of unchanged drug: less than 1 % of the dose
  Total oral dose excreted in the urine: Thirty-one
  Total oral dose excreted unchanged in the feces: 53%

## Cc1cc(/C=C/C#N)cc(C)c1Nc1ccnc(Nc2ccc(C#N)cc2)n1 [Rilpivirine, 4-[[4-[[4-[(E)-2-cyanoethenyl]-2,6-dimethylphenyl]amino]-2-pyrimidinyl]amino]benzonitrile]
[1]; [6]
  Increase of AUC(0-∞): 72%
  Increase of Cmax: 117%
[1]; [7]
  Increase of AUC(0-∞): 57%
  Increase of Cmax: 89%
Cytochrome P450 CYP3A
  Metabolic pathway: primarily metabolized by CYP3A
Cytochrome P450 CYP3A; listed as rilpivirine
  Metabolic pathway: primarily undergoes oxidative metabolism mediated by the cytochrome P450 CYP3A system
[4]; human, in vivo, oral, read-out: Terminal elimination half-life (converted)
  half-life: ~50 h
[4]; taken with only a protein-rich nutritional drink
  Exposures lower than when taken with a meal: 50%
[5]
  Unchanged rilpivirine in urine: < 1 % of dose
[5]; on average
  Radioactivity retrieved in feces: 85%
  Radioactivity retrieved in urine: 6.1%
  Unchanged rilpivirine in feces: 25 % of the administered dose
